Source: ChEMBL document CHEMBL1201862, “PubChem BioAssay data set” (2004)
Structures can show the parent of a compound that is named as a salt. Active and inactive are the calls of the source.

Columns and labels:
[1] = target: T1, E3 ubiquitin-protein ligase XIAP (Homo sapiens, UniProt P98170); experiment: Counter Screen using XIAP-Bir3 for Chemical Antagonists of Bir1/2 domains of IAP-family anti-apoptotic proteins. [Related pubchem assays (depositor defined):AID1018, AID1449, AID1514, AID1638, AID1749, AID1750, AID488957, AID488963]
T1 sequence (P98170 whole entry): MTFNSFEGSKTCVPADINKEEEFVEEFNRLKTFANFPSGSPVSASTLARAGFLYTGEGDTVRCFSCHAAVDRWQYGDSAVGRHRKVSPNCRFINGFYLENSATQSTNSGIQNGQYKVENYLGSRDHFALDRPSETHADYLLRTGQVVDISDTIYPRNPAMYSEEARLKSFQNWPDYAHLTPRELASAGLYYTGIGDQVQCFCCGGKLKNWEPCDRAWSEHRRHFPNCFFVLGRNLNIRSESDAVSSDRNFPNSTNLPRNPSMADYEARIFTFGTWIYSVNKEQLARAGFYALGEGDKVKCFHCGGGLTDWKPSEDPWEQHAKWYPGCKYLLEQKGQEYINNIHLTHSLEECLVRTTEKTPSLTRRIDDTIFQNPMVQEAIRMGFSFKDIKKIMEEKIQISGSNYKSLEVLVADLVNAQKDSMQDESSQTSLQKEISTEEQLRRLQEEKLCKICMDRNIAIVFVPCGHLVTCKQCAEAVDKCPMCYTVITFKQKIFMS

[2] = target: T1, E3 ubiquitin-protein ligase XIAP; experiment: small molecules displacing peptide from XIAP – biochemical, IAP family, fluorescence polarization (AID 1018); assay type: functional
[3] = target: Eukaryotic translation initiation factor 4H (Homo sapiens, UniProt Q15056); experiment: inhibitors of translation initiation factor eIF4H – SAR follow-up (AID 435011); assay type: functional
[4] = target: Polyadenylate-binding protein 1 (Homo sapiens, UniProt P11940); experiment: PABP inhibition in translation initiation, SAR follow-up (AID 435018); assay type: functional
Cannabinoid receptor 2 [5] = target: T2, Cannabinoid receptor 2 (Homo sapiens, UniProt P34972); experiment: SAR analysis of antagonists of the Cannabinoid Receptor 2 using an Image-Based Assay - Set 2. [Related pubchem assays (depositor defined):AID1961, AID1965]; assay type: functional
T2 sequence (P34972 whole entry): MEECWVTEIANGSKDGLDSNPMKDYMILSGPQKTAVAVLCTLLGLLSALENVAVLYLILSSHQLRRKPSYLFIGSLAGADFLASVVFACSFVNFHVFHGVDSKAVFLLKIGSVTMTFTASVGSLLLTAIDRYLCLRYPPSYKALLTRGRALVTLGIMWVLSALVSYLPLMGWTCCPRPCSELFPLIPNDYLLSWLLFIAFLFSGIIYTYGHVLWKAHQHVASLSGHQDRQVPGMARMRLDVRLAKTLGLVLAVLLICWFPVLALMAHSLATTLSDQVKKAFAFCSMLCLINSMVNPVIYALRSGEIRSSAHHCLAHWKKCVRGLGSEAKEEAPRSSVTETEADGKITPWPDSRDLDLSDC

[6] = target: G-protein coupled receptor 55 (Homo sapiens, UniProt Q9Y2T6); experiment: SAR analysis of selective Agonists of GPR55 using an Image-Based Assay - Set 2. [Related pubchem assays (depositor defined):AID1961, AID1965]; assay type: functional
Sequence of G-protein coupled receptor 55 (Q9Y2T6 whole entry): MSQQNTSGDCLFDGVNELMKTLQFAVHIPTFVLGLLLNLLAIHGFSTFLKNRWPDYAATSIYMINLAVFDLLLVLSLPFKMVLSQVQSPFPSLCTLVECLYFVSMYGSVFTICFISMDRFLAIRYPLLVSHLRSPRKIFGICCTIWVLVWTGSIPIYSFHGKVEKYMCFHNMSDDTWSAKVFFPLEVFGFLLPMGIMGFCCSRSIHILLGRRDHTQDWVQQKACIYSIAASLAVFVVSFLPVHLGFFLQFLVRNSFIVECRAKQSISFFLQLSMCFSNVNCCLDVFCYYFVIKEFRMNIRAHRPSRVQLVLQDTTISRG

Cannabinoid receptor 2 [7] = target: T2, Cannabinoid receptor 2; experiment: SAR analysis of agonists of the Cannabinoid Receptor 2 using an Image-Based Assay - Set 2. [Related pubchem assays (depositor defined):AID1961, AID1965]; assay type: functional
[8] = target: T3, G-protein coupled receptor 35 (Homo sapiens, UniProt Q9HC97); experiment: SAR analysis of Agonists of the GPR35 Receptor using an Image-Based Assay - Set 3. [Related pubchem assays (depositor defined):AID1961, AID1965]; assay type: functional
T3 sequence (Q9HC97 whole entry): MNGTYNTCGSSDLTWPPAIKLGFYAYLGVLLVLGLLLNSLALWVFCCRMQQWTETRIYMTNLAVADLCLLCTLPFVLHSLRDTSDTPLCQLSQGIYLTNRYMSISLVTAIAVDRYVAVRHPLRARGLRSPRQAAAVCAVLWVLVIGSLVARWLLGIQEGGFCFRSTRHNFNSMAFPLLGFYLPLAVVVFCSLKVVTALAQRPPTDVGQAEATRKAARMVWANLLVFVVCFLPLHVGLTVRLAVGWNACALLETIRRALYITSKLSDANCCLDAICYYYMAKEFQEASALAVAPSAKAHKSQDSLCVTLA

Cannabinoid receptor 1 [9] = target: T4, Cannabinoid receptor 1 (Homo sapiens, UniProt P21554); experiment: SAR analysis of antagonists of the Cannabinoid Receptor 1 using an Image-Based Assay - Set 3. [Related pubchem assays (depositor defined):AID1961, AID1965]; assay type: functional
T4 sequence (P21554 whole entry): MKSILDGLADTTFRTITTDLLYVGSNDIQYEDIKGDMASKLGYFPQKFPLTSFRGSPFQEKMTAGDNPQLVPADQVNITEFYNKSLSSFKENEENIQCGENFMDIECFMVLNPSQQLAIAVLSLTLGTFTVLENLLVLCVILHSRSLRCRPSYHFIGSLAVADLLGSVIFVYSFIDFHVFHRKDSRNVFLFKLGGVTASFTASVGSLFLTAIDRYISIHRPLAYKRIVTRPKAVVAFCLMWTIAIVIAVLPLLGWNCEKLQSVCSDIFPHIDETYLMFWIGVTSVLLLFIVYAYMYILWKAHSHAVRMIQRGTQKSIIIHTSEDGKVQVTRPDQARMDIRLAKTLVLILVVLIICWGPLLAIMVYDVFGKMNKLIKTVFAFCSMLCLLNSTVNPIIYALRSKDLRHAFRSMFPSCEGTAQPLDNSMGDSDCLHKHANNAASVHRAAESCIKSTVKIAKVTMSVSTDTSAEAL

Cannabinoid receptor 1 [10] = target: T4, Cannabinoid receptor 1; experiment: SAR analysis of agonists of the Cannabinoid Receptor 1 using an Image-Based Assay - Set 3. [Related pubchem assays (depositor defined):AID1961, AID1965]; assay type: functional
[11] = target: T3, G-protein coupled receptor 35; experiment: SAR analysis of Antagonists of the GPR35 Receptor using an Image-Based Assay - Set 4. [Related pubchem assays (depositor defined):[…]]; assay type: functional
[12] = target: Voltage-dependent T-type calcium channel subunit alpha-1H (Homo sapiens, UniProt O95180); experiment: human CACNA1H calcium influx blockade – cell-based, synthetic library set 2, HEK293 HH8, Fluo-4, SAR follow-up (AID 493023); assay type: functional
Sequence of Voltage-dependent T-type calcium channel subunit alpha-1H (O95180 whole entry): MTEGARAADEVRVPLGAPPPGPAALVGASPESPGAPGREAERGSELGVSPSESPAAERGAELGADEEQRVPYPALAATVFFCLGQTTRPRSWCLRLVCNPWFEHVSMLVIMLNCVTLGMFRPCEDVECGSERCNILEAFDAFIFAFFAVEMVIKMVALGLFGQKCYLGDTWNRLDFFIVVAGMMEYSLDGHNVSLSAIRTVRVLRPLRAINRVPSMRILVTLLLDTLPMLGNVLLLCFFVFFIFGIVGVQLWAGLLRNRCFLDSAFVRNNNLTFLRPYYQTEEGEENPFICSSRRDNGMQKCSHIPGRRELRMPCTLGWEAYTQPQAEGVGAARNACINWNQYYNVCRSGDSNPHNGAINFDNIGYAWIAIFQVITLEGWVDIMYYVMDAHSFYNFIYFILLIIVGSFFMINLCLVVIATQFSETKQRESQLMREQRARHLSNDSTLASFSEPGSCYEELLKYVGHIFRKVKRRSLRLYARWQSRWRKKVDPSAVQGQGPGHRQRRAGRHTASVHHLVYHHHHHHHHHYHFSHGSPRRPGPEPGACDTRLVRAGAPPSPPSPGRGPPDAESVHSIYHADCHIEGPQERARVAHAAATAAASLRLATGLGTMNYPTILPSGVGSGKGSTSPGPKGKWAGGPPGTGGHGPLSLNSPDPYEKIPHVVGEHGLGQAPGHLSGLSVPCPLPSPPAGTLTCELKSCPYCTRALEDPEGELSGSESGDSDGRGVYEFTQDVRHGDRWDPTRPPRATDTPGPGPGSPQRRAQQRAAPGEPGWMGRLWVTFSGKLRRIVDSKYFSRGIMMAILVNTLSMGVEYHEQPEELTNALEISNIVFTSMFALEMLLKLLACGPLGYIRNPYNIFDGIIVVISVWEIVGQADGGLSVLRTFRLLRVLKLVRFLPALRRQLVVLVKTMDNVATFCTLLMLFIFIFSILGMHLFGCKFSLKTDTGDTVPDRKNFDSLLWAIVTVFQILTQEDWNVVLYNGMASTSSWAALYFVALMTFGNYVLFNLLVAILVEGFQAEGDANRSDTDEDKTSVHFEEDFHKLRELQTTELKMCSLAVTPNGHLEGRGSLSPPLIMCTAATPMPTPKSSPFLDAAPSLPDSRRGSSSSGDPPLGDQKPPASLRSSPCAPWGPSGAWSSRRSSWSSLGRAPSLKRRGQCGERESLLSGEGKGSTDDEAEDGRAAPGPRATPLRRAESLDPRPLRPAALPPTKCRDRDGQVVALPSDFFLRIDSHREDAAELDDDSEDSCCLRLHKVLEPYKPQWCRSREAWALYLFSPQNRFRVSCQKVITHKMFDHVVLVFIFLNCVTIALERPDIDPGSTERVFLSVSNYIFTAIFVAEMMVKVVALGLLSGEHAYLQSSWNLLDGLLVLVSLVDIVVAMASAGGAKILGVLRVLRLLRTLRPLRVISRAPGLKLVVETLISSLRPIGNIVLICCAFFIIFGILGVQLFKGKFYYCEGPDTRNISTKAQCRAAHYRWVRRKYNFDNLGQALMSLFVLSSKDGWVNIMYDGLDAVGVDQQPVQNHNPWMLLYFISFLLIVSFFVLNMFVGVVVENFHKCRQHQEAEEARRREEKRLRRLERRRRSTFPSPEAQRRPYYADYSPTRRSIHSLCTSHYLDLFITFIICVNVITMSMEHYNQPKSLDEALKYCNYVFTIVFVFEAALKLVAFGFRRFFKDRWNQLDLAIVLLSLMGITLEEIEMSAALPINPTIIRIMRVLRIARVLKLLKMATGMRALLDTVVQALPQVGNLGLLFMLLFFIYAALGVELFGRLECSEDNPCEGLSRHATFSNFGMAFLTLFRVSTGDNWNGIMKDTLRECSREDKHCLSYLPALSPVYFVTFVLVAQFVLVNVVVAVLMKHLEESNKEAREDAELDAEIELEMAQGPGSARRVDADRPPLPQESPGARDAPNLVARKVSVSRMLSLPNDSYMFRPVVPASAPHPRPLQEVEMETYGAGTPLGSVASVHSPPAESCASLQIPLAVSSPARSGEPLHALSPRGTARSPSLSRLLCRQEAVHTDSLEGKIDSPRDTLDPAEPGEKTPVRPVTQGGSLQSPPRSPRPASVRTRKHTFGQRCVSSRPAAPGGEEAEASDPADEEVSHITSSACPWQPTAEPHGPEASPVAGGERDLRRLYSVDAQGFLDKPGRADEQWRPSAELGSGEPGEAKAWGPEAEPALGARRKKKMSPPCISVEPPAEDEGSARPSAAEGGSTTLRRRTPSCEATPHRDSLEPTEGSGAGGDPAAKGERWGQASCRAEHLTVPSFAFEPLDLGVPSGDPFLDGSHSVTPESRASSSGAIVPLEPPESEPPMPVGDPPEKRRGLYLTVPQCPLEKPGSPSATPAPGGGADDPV

[13] = NIH/3T3 cell viability loss – mouse embryonic fibroblasts, dry powder, set 2, cytotoxicity control, dose response (AID 493247); assay type: functional, cell-based; conditions: Fibroblast
Trypanosoma cruzi = experiment: anti-trypanosomal activity in host cells – cell-based, plate reader, dry powder, set 3, dose response (AID 493197); assay type: functional
[14] = target: 5-hydroxytryptamine receptor 1A (Homo sapiens, UniProt P08908); assay type: functional
Sequence of 5-hydroxytryptamine receptor 1A (P08908 whole entry): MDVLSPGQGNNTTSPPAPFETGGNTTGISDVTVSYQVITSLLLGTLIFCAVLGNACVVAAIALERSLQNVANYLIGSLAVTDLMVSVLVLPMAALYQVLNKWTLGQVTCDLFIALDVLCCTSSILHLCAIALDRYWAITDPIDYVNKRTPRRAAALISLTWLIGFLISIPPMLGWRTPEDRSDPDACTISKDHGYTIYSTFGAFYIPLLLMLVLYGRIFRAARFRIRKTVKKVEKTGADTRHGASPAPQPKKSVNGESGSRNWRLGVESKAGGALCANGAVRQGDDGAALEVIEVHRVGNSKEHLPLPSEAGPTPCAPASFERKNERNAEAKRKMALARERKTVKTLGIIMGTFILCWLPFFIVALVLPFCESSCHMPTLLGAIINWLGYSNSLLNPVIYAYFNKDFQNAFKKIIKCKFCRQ

[15] = target: T5, Short transient receptor potential channel 4 (Mus musculus, UniProt Q9QUQ5); experiment: potentiation of DAMGO-evoked TRPC4 calcium signal – cell-based, HEK293 TRPC4/mu-opioid, Fluo-4 calcium, EC20 DAMGO, dose response (AID 434941); assay type: functional
T5 sequence (Q9QUQ5 whole entry): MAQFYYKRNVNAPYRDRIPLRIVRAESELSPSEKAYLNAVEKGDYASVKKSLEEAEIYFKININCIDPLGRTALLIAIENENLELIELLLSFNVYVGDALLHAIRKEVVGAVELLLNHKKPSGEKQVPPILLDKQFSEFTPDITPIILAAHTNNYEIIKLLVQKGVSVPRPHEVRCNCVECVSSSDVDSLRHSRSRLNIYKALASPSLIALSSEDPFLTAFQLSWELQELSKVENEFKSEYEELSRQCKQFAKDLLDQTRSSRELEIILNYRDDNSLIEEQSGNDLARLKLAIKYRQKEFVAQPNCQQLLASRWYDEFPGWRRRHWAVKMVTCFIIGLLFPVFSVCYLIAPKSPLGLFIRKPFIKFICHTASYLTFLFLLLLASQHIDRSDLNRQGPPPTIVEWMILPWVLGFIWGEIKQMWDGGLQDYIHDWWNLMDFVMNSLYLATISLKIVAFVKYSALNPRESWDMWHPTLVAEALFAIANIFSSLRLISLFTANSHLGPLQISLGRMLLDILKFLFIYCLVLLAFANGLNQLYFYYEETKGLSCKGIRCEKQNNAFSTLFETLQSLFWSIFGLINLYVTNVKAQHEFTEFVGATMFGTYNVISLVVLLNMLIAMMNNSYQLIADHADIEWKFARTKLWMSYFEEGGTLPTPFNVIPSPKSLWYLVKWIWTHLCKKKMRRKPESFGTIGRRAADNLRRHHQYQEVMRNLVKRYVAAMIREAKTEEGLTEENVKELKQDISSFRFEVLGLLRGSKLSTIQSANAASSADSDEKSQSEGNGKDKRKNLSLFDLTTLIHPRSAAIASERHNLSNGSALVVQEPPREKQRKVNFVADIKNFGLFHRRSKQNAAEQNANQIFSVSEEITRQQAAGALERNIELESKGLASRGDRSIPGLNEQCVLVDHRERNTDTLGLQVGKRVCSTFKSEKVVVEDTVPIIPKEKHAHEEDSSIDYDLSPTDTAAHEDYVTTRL

In the case of `C=CCNC(=O)/C(C#N)=C/c1cn(-c2ccccc2)nc1-c1ccc(OC)c([N+](=O)[O-])c1`, the IC50 [1] is reported as > 100 µM (inactive) and the IC50 [2] is reported as > 100 µM (not active).

With `COc1ccc([N+](=O)[O-])cc1NC(=O)COC(=O)c1ccccc1C(=O)c1ccccc1` the IC50 [3] was > 100 µM (inactive) and the IC50 [4] was > 100 µM (inactive).

In the case of `COc1ccc(-c2csc(NC(=O)CSc3nnc4c(C)cc5cc6c(cc5n34)OCO6)n2)cc1`, the IC50 (Cannabinoid receptor 2 [5]) is reported as > 32 µM (inactive), the EC50 [6] is reported as > 32 µM (inactive) and the EC50 (Cannabinoid receptor 2 [7]) is reported as > 32 µM (inactive). For the same molecule, the EC50 [8] was > 32 µM (inactive), the IC50 (Cannabinoid receptor 1 [9]) was > 32 µM (inactive) and the EC50 (Cannabinoid receptor 1 [10]) was > 32 µM (inactive). For the same molecule, the IC50 [11] was > 32 µM (inactive).

In the case of `CC(C)(C)CCN1CCC[C@@H](NC(=O)c2ccc(Cl)cc2Cl)C1`, the EC50 [12] is reported as 10 µM (active).

For `O=C(Cc1cccnc1)N/N=C/c1ccc([N+](=O)[O-])o1`, the AC50 [13] was 23.1 µM (active) and the AC50 (Trypanosoma cruzi) was 0.131 µM (active).

In the case of `Cc1cc(C(C)(C)C)c(O)c(C)c1CC1=NCCN1` [OXYMETAZOLINE HYDROCHLORIDE], the EC50 [14] is reported as 0.07 µM (active) and the EC50 [15] is reported as 3.35 µM (active).
